Our source for the IC50 and EC50 values is patent US7491794B2, “Macrocyclic compounds as inhibitors of viral replication” (Intermune, Inc., priority 2003, dated 2009).

The target in one assay is T1, NS3-NS4A protease (Hepatitis C virus genotype 1a, UniProt P27958).
T1 construct: Recombinant E. coli or Baculovirus full-length NS3 was diluted to 3.33 μM with assay buffer; made in house; host or cells: E. coli or baculovirus (BV) system
Briefly: NS3-NS4A protease assay (NS3 inhibition assay, RETS1 substrate), Section B. The settings on record: read-out: NS3-NS4A IC50. The assay is classed as biochemical. Summed up: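 Kinetic fluorescence read (335 nm excitation, 495 nm emission, 30 min) of RETS1 cleavage by NS3/NS4A-2 complex, 2 nM E. coli or 3 nM baculovirus NS3, after 10 min room-temperature compound pre-incubation. Four-parameter-fit IC50s converted to Ki by Cheng–Prusoff, Ki=IC50/(1+[S]/Km).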

For assay [1], the system named is HCV sub-genomic replicon, GS4.3. Briefly: Quantitation by ELISA of NPTII in the HCV sub-genomic replicon, GS4.3, Section B. The format is cell-based. The following applies: Hepatitis C virus; GS4.3 cells, 72 h incubation; read-out: Replicon EC50. Summed up: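 NPTII marker protein in lysates was quantified by ELISA read at 450 nm after 72 h inhibitor exposure (3-fold series, final DMSO 1%, G418-free medium) of HuH-7 cells stably harbouring the subgenomic HCV replicon. Values relative to DMSO-treated controls; 4-parameter curves gave EC50.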
A general note: ELISA stands for enzyme-linked immunosorbent assay.

T1 sequence (P27958 1027-1657): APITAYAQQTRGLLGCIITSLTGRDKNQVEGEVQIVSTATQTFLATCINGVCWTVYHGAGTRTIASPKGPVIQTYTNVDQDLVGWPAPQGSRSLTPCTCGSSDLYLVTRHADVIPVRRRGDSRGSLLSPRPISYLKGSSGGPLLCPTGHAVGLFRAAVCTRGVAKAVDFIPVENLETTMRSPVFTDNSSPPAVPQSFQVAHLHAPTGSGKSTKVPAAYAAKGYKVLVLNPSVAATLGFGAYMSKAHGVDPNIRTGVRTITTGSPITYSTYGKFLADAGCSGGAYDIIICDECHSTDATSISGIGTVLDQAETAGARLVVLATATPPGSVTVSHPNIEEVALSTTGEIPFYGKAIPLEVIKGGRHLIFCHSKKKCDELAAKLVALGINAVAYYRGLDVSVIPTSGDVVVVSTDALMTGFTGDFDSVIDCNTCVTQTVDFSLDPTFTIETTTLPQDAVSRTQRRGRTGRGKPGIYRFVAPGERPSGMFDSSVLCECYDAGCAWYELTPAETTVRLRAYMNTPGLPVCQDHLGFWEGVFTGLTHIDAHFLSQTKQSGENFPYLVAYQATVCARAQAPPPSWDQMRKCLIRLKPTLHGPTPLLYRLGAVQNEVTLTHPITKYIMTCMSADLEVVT

One may read the IC50 as the midpoint of a concentration-inhibition curve. A word on the EC50: it is the concentration at which the effect is half-maximal. In the case of `CC(C)(C)OC(=O)N[C@H]1CCCCC/C=C\[C@@H]2C[C@@]2(C(=O)NS(=O)(=O)C2CC2)NC(=O)[C@@H]2C[C@@H](OC(=O)N3Cc4ccc(OCCCN5CCOCC5)cc4C3)CN2C1=O` [AR00345075, (1S,4R,6S,14S,18R)-5-(3-Morpholin-4-yl-propoxy)-1,3-dihydro-isoindole-2-carboxylic acid 14-tert-butoxycarbonylamino-4-cyclopropanesulfonylaminocarbonyl-2,15-dioxo-3,16-diaza-tricyclo[14.3.0.0^4,6]nonadec-7-en-18-yl ester], at NS3-NS4A protease, the half-maximal inhibitory concentration (IC50) was under 100 nM. Besides, the 50% effective concentration (EC50) in assay [1] was under 1000 nM.
On the same counts, the results for `CC(C)(C)OC(=O)N[C@H]1CCCCC/C=C\[C@@H]2C[C@@]2(C(=O)NS(=O)(=O)C2CC2)NC(=O)[C@@H]2C[C@@H](OC(=O)N3Cc4ccc(OCCN5CCOCC5)cc4C3)CN2C1=O` [AR00345090, (1S,4R,6S,14S,18R)-5-(2-Morpholin-4-yl-ethoxy)-1,3-dihydro-isoindole-2-carboxylic acid 14-tert-butoxycarbonylamino-4-cyclopropanesulfonylaminocarbonyl-2,15-dioxo-3,16-diaza-tricyclo[14.3.0.0^4,6]nonadec-7-en-18-yl ester] are under 100 nM and under 100 nM.
Turning to `CC(C)NCCOc1ccc2c(c1)CN(C(=O)O[C@@H]1C[C@H]3C(=O)N[C@]4(C(=O)NS(=O)(=O)C5CC5)C[C@H]4/C=C\CCCCC[C@H](NC(=O)OC(C)(C)C)C(=O)N3C1)C2` [AR00345094, (1S,4R,6S,14S,18R)-5-(2-Isopropylamino-ethoxy)-1,3-dihydro-isoindole-2-carboxylic acid 14-tert-butoxycarbonylamino-4-cyclopropanesulfonylaminocarbonyl-2,15-dioxo-3,16-diaza-tricyclo[14.3.0.0^4,6]nonadec-7-en-18-yl ester], on NS3-NS4A protease, the IC50 was under 100 nM. The 50% effective concentration (EC50) in assay [1] is under 100 nM.
For `CN(C)CCOc1ccc2c(c1)CN(C(=O)O[C@@H]1C[C@H]3C(=O)N[C@]4(C(=O)NS(=O)(=O)C5CC5)C[C@H]4/C=C\CCCCC[C@H](NC(=O)OC(C)(C)C)C(=O)N3C1)C2` [AR00345095, (1S,4R,6S,14S,18R)-5-(2-Dimethylamino-ethoxy)-1,3-dihydro-isoindole-2-carboxylic acid 14-tert-butoxycarbonylamino-4-cyclopropanesulfonylaminocarbonyl-2,15-dioxo-3,16-diaza-tricyclo[14.3.0.0^4,6]nonadec-7-en-18-yl ester], on NS3-NS4A protease, the IC50 is under 100 nM. In assay [1], the concentration for a half-maximal effect (EC50) is under 100 nM.
Take `CC(C)(C)OC(=O)N[C@H]1CCCCC/C=C\[C@@H]2C[C@@]2(C(=O)NS(=O)(=O)C2CC2)NC(=O)[C@@H]2C[C@@H](OC(=O)N3Cc4ccc(OCCn5ccnc5)cc4C3)CN2C1=O` [AR00345096, (1S,4R,6S,14S,18R)-5-(2-Imidazol-1-yl-ethoxy)-1,3-dihydro-isoindole-2-carboxylic acid 14-tert-butoxycarbonylamino-4-cyclopropanesulfonylaminocarbonyl-2,15-dioxo-3,16-diaza-tricyclo[14.3.0.0^4,6]nonadec-7-en-18-yl ester]: at NS3-NS4A protease, the concentration for half-maximal inhibition (IC50) is under 100 nM. For the same compound, the EC50 in assay [1] is under 100 nM.
Turning to `Cn1c(C(=O)O)ccc1S(=O)(=O)NC(=O)[C@@]12C[C@H]1/C=C\CCCCC[C@H](NC(=O)OC(C)(C)C)C(=O)N1C[C@H](OC(=O)N3Cc4ccccc4C3)C[C@H]1C(=O)N2` [AR00364266, (1S,4R,6S,14S,18R)-1,3-Dihydro-isoindole-2-carboxylic acid 14-tert-butoxycarbonylamino-4-(5-carboxy-1-methyl-1H-pyrrole-2-sulfonylaminocarbonyl)-2,15-dioxo-3,16-diaza-tricyclo[14.3.0.0^4,6]nonadec-7-en-18-yl ester], the IC50 on NS3-NS4A protease is under 100 nM. For the same compound, the EC50 in assay [1] is under 1000 nM.
In the case of `CC(C)(C)OC(=O)N[C@H]1CCCCC/C=C\[C@@H]2C[C@@]2(C(=O)NS(=O)(=O)C2CC2)NC(=O)[C@@H]2C[C@@H](OC(=O)N3Cc4ccc(OCCn5cccn5)cc4C3)CN2C1=O` [AR00364924, (1S,4R,6S,14S,18R)-5-(2-Pyrazol-1-yl-ethoxy)-1,3-dihydro-isoindole-2-carboxylic acid 14-tert-butoxycarbonylamino-4-cyclopropanesulfonylaminocarbonyl-2,15-dioxo-3,16-diaza-tricyclo[14.3.0.0^4,6]nonadec-7-en-18-yl ester], the concentration for half-maximal inhibition (IC50) at NS3-NS4A protease is under 100 nM. Also, the concentration for a half-maximal effect (EC50) in assay [1] is under 100 nM.
Take `CC(C)(C)OC(=O)N[C@H]1CCCCC/C=C\[C@@H]2C[C@@]2(C(=O)NS(=O)(=O)C2CC2)NC(=O)[C@@H]2C[C@@H](OC(=O)N3Cc4ccc(O)cc4C3)CN2C1=O` [AR00364936, (1S,4R,6S,14S,18R)-5-Hydroxy-1,3-dihydro-isoindole-2-carboxylic acid 14-tert-butoxycarbonylamino-4-cyclopropanesulfonylaminocarbonyl-2,15-dioxo-3,16-diaza-tricyclo[14.3.0.0^4,6]nonadec-7-en-18-yl ester]: the IC50 on NS3-NS4A protease is under 100 nM. In addition, in assay [1], the EC50 is under 1000 nM.
On the same counts, the results for `Cc1nc(-c2ccc3c(c2)CN(C(=O)O[C@@H]2C[C@H]4C(=O)N[C@]5(C(=O)NS(=O)(=O)C6CC6)C[C@H]5/C=C\CCCCC[C@H](NC(=O)OC(C)(C)C)C(=O)N4C2)C3)cs1` [AR00364989, (1S,4R,6S,14S,18R)-5-(2-Methyl-thiazol-4-yl)-1,3-dihydro-isoindole-2-carboxylic acid 14-tert-butoxycarbonylamino-4-cyclopropanesulfonylaminocarbonyl-2,15-dioxo-3,16-diaza-tricyclo[14.3.0.0^4,6]nonadec-7-en-18-yl ester] are under 100 nM and under 100 nM.
Taken in the same sequence, the figures for `CC(C)Nc1nc(-c2ccc3c(c2)CN(C(=O)O[C@@H]2C[C@H]4C(=O)N[C@]5(C(=O)NS(=O)(=O)C6CC6)C[C@H]5/C=C\CCCCC[C@H](NC(=O)OC(C)(C)C)C(=O)N4C2)C3)cs1` [AR00365019, (1S,4R,6S,14S,18R)-5-(2-Isopropylamino-thiazol-4-yl)-1,3-dihydro-isoindole-2-carboxylic acid 14-tert-butoxycarbonylamino-4-cyclopropanesulfonylaminocarbonyl-2,15-dioxo-3,16-diaza-tricyclo[14.3.0.0^4,6]nonadec-7-en-18-yl ester] were under 100 nM and under 100 nM.
Regarding `CC(C)(C)OC(=O)N[C@H]1CCCCC/C=C\[C@@H]2C[C@@]2(C(=O)NS(=O)(=O)C2CC2)NC(=O)[C@@H]2C[C@@H](OC(=O)N3Cc4ccc(C#N)cc4C3)CN2C1=O` [AR00365082, (1S,4R,6S,14S,18R)-5-Cyano-1,3-dihydro-isoindole-2-carboxylic acid 14-tert-butoxycarbonylamino-4-cyclopropanesulfonylaminocarbonyl-2,15-dioxo-3,16-diaza-tricyclo[14.3.0.0^4,6]nonadec-7-en-18-yl ester], the IC50 on NS3-NS4A protease was under 100 nM. For the same compound, the EC50 in assay [1] is under 1000 nM.
On the same counts, the results for `COC(=O)c1ccc2c(c1)CN(C(=O)O[C@@H]1C[C@H]3C(=O)N[C@]4(C(=O)NS(=O)(=O)C5CC5)C[C@H]4/C=C\CCCCC[C@H](NC(=O)OC(C)(C)C)C(=O)N3C1)C2` [AR00365083, (1S,4R,6S,14S,18R)-1,3-Dihydro-isoindole-2,5-dicarboxylic acid 2-(14-tert-butoxycarbonylamino-4-cyclopropanesulfonylaminocarbonyl-2,15-dioxo-3,16-diaza-tricyclo[14.3.0.0^4,6]nonadec-7-en-18-yl) ester 5-methyl ester] are under 100 nM and under 100 nM.
